Patent US7923579B2, “Tricyclic hydroxamate and benzamide derivatives, compositions and methods” (Exonhit Therapeutics S.A., priority 2003, dated 2011)

How the values were obtained:
[1] = system: HDAC activity of Hela (human cervical cancer cell line) cells nuclear extract; assay: HDAC Fluorescent Activity Assay (Biomol Fluor de Lys substrate) with Hela nuclear extract; type: biochemical; conditions: read-out: IC50 (dose of compound leading to 50% of HDAC activity), Hela nuclear extract 5 μg, room temperature 0.5 h
Description: Therefore, a fast, non isotopic method has been chosen that relies on a fluorescent HDAC substrate. This assay is a two step enzymatic reaction. The substrate used is a peptidic substrate with a ε-acetylated lysyl moiety followed by a 4-methylcoumarin-7-amide (AMC) moiety at their carboxy terminus. In the first reaction catalysed by HDACs, acetate is released from ε-acetylated lysine residue. In the second reaction, the deacetylated peptides are recognized as substrate by trypsin, which cleaves the deacetylated peptide after the lysine residue. This cleavage releases the AMC and the fluorescence is monitored by a fluorometer.
In order to evaluate the effect of one compound on HDAC activity, the HDAC Fluorescent Activity Assay/Drug Discovery Kit® developed by Biomol and based on the two step enzymatic reaction described above was used with modifications. The substrate of the Biomol assay, called Fluor de Lys™, comprises an acetylated lysine side chain with an AMC moiety.
Then, 5 μg of Hela (human cervical cancer cell line) cells nuclear extract is added in each well. The enzymatic reaction is initiated by the addition of the diluted Fluor de Lys™ substrate and the microplate is incubated at room temperature (e.g. 25° C.) for 0.5 h. In order to stop the reaction and to produce the fluorophore release, 50 μl of the Fluor de Lys™ Developer solution is added in each well and the microplate is incubated at room temperature (e.g. 25° C.) for 0.25 h. Finally, the fluorescence is measured by a fluorimeter (Fluoroskan Ascent FL, Thermolabsystem) at excitation wavelength of 360 nm and emission wavelength of 460 nm.

HDAC = conditions: read-out: HDAC activity is inhibited (reported concentration); depending of the HDAC activity assay used; cited from earlier work

Structure (SMILES)	IC50 [1] [nM]	melting point [°C]	IC50 (HDAC) [nM]
CC1(C)CCC(C)(C)c2cc(C(F)(F)C(=O)NCc3ccc(C(=O)NO)cc3)ccc21 [EHT 7800, 4-((2,2-Difluoro-2-(1,2,3,4-tetrahydro-1,1,4,4-tetramethylnaphthalen-7-yl)acetamido)methyl)-N-hydroxybenzamide]	4100	–	–
CC1(C)CCC(C)(C)c2cc(C(=O)Nc3ccc(C(F)(F)C(=O)NO)cc3)ccc21 [EHT 4996, N-(4-((hydroxycarbamoyl)difluoromethyl)phenyl)-5,6,7,8-tetrahydro-5,5,8,8-tetramethylnaphthalene-2-carboxamide]	–	224.2	–
CC1(C)CCC(C)(C)c2cc(C(F)(F)C(=O)Nc3ccc(C(=O)NO)cc3)ccc21 [EHT 9299, 4-(2,2-Difluoro-2-(1,2,3,4-tetrahydro-1,1,4,4-tetramethylnaphthalen-7-yl)acetamido)-N-hydroxybenzamide]	424	–	–
CC1(C)CCC(C)(C)c2cc(NC(=O)c3ccc(C(=O)NO)cc3)ccc21 [EHT 7706, N-(1,2,3,4-Tetrahydro-1,1,4,4-tetramethylnaphthalen-6-yl)-N′-hydroxyterephthalamide]	1180	211	–
CC(/C=C/C(=O)NO)=C\[C@@H](C)C(=O)c1ccc(N(C)C)cc1 [TSA, Trichostatin A]	–	–	1.4 to 2.6
CC1(C)CCC(C)(C)c2cc(C(=O)Nc3ccc(C(=O)NO)cc3)ccc21 [EHT 3741, N-(4-(Hydroxycarbamoyl)phenyl)-5,6,7,8-tetrahydro-5,5,8,8-tetramethylnaphthalene-2-carboxamide]	5130	–	–
